Results taken from patent US11220504B2, “Pyrrolo[3,2-d] pyrimidine derivatives for the treatment of viral infections and other diseases” (JANSSEN SCIENCES IRELAND UNLIMITED COMPANY, priority 2012, dated 2022).

How the values were obtained:
human TLR8 = target: T1, human TLR8 (Homo sapiens, UniProt Q9NR97); test: TLR8 cellular reporter assay (HEK293, NFκB-luc); type: cell-based; conditions: HEK293 cells transfected with CMV-TLR8 and NFκB-luc, 6 hours incubation; lowest effective concentration
T1 construct: expressed in transfected cells; host or cells: HEK293 cells, transient transfection with TLR8 plasmid and NFκB-luc plasmid
T1 sequence (Q9NR97 27-1041): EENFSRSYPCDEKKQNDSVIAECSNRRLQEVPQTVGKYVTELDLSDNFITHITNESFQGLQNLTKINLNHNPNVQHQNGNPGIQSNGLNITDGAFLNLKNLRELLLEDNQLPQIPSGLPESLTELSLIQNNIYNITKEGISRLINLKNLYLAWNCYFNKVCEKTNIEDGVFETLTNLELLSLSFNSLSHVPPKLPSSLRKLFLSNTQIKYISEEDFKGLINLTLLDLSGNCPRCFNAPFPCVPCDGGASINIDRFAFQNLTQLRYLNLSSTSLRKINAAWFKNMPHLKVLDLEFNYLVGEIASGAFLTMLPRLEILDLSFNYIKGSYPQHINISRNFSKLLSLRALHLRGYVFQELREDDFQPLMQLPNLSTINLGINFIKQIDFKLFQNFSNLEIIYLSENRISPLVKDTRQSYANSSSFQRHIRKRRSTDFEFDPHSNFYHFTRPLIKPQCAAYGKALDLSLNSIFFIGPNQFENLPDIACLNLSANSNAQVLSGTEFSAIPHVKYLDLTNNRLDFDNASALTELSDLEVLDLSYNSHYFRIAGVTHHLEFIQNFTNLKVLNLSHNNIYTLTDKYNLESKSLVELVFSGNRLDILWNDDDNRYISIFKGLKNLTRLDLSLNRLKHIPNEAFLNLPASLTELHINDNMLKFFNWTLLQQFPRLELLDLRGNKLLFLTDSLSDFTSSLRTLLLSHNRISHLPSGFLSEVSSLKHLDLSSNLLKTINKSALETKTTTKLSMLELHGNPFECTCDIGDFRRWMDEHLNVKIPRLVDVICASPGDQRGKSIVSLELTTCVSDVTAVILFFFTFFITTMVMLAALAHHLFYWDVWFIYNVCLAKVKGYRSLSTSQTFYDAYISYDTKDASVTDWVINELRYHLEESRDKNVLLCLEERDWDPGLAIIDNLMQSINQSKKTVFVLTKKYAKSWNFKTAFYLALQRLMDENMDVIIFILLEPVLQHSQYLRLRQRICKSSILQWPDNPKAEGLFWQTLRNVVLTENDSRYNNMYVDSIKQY
How it was run: (§1)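 HEK293 cells transiently transfected with receptor expression vector plus NFκB-luciferase reporter, exposed to compound (added in 4% DMSO) for 6 hours at 37° C, 5% CO2. Luciferase activity measured by luminescence; dose-response curves from quadruplicate measurements.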

[1] = tested on: interferon-stimulated responsive elements (ISRE); test: Activation of ISRE promoter elements by conditioned media from PBMC (HEK-ISREluc); type: cell-based, human; conditions: Homo sapiens; conditioned media from PBMC transferred to HEK-ISREluc cells, 24 hours; lowest effective concentration; read-out: PBMC LEC
How it was run: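 Human PBMCs (≥2 donors, RPMI + 10% human AB serum, 2×10^5 cells/well) incubated overnight with compound; supernatant transferred to HEK293 cells stably carrying pISRE-Luc for 24 h, then luciferase read. LEC = compound concentration on PBMCs giving luciferase signal at least two-fold above assay SD; recombinant IFN-α-2a standard.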

human TLR7 = target: T2, human TLR7 (Homo sapiens, UniProt Q9NYK1); test: TLR7 cellular reporter assay (HEK293, NFκB-luc); type: cell-based; conditions: HEK293 cells transfected with CMV-TLR7 and NFκB-luc, 6 hours incubation; lowest effective concentration
T2 construct: expressed in transfected cells; host or cells: HEK293 cells, transient transfection with CMV-TLR7 plasmid and NFκB-luc plasmid
T2 sequence (Q9NYK1 27-1049): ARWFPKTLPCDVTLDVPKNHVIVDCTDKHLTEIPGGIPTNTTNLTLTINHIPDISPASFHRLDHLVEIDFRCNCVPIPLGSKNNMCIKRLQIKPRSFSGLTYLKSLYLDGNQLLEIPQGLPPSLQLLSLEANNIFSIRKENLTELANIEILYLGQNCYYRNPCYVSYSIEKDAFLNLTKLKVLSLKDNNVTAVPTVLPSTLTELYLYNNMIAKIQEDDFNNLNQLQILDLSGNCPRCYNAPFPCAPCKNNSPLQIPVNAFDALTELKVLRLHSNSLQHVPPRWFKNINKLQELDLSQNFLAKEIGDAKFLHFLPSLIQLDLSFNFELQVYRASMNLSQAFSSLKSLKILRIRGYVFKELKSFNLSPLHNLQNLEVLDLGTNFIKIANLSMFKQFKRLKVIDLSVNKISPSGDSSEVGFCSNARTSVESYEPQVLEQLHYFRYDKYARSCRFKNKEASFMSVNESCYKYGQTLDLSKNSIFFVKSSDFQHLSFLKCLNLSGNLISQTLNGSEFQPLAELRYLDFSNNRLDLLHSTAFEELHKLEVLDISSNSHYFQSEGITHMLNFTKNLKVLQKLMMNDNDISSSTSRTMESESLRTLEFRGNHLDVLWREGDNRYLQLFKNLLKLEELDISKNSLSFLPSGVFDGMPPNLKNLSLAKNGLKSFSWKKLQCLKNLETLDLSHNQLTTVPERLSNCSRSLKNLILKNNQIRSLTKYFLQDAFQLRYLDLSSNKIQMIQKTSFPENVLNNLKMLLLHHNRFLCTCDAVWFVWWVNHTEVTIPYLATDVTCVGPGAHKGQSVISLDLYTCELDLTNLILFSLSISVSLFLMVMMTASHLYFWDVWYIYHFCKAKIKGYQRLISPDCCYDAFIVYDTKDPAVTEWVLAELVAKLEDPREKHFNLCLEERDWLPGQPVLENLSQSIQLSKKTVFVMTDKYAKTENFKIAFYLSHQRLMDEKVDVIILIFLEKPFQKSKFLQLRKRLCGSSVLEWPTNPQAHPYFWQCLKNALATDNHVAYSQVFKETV
How it was run: as §1

SMILES | TLR8 LEC (human TLR8) [µM] | minimal effective concentration [1] [µM] | TLR7 LEC (human TLR7) [µM]
CCCC(C)Nc1nc(N)nc2ccn(Cc3ccccc3F)c12 (stereo not drawn) [Compound 74] | >25 | 0.04 | 0.10
CCCC(C)Nc1nc(N)nc2ccn(Cc3ccc(OC)cc3)c12 (stereo not drawn) [Compound 75] | >25 | 0.04 | 0.04
CCCC[C@@H](CCO)Nc1nc(N)nc2ccn(Cc3ccccc3F)c12 [Compound 76] | 4.09 | 0.007 | 0.01
CCCC[C@@H](CCO)Nc1nc(N)nc2ccn(Cc3ccc(OC)cc3)c12 [Compound 77] | 2.62 | 0.002 | 0.008
CCCC[C@@H](CCO)Nc1nc(N)nc2ccn(Cc3ccccc3OC)c12 [Compound 78] | 0.5577 | < 0.0004 | 0.0004
CCCC(C)Nc1nc(N)nc2ccn(Cc3ccccc3OC)c12 (stereo not drawn) [Compound 79] | 0.94 | 0.001 | 0.004
CCC[C@@H](CCO)Nc1nc(N)nc2ccn(Cc3ccccc3OC)c12 [Compound 80] | 0.689 | < 0.0004 | <0.0006
CCC[C@@H](CCO)Nc1nc(N)nc2ccn(Cc3ccccc3F)c12 [Compound 81] | 22.02 | 0.002 | 0.01
CCC[C@@H](CCO)Nc1nc(N)nc2ccn(CC3CCC3)c12 [Compound 82] | 0.57 | 0.01 | 0.07
CCCCn1ccc2nc(N)nc(NCc3ccccc3)c21 [Compound 83] | >25 | 2.3 | 1.57
CCCC[C@@H](CCO)Nc1nc(N)nc2ccn(CC3CCC3)c12 [Compound 84] | 1.14 | 0.01 | 0.04
CCC[C@@H](CCO)Nc1nc(N)nc2ccn(Cc3cscn3)c12 [Compound 85] | 10.14 | 0.002 | 0.03
CCCCNc1nc(N)nc2cc(F)n(Cc3ccccc3)c12 [Compound 86] | >25 | 0.47 | 1.63
CCC[C@@H](CCO)Nc1nc(N)nc2ccn(CC3CCCCC3)c12 [Compound 87] | >25 | 0.008 | 0.01
CCCC[C@@H](CCO)Nc1nc(N)nc2ccn(Cc3cscn3)c12 [Compound 88] | 2.46 | 0.0006 | 0.01
Cc1cccc(Cn2ccc3nc(N)nc(NCc4cc(C)on4)c32)n1 [Compound 90] | >25 | 0.01 | 0.03
CCCC[C@@H](CCO)Nc1nc(N)nc2ccn(CC3CCCO3)c12 (stereo partly drawn) [Compound 91] | 2.17 | 0.02 | 0.05

SMILES | TLR8 LEC (human TLR8) [µM] | minimal effective concentration [1] [µM] | TLR7 LEC (human TLR7) [µM]
CCC[C@@H](CCO)Nc1nc(N)nc2ccn(CC3CCCO3)c12 (stereo partly drawn) [Compound 92] | 4.46 | 0.02 | 0.10
CCCCNc1nc(N)nc2c(F)cn(Cc3ccccc3)c12 [Compound 93] | >25 | 0.12 | 0.26
CCC[C@@H](CCO)Nc1nc(N)nc2c(F)cn(Cc3ccccc3)c12 [Compound 94] | >25 | 0.01 | 0.01
CCCC[C@@H](CCO)Nc1nc(N)nc2c(F)cn(Cc3ccccc3)c12 [Compound 95] | 3.26 | 0.007 | 0.01
CCCCNc1nc(N)nc2ccn(Cc3c(OC)cccc3OC)c12 [Compound 97] | 0.23 | 0.001 | <0.01
CCCC(C)Nc1nc(N)nc2ccn(Cc3c(OC)cccc3OC)c12 (stereo not drawn) [Compound 98] | 0.22 | 0.001 | <0.01
CCCC[C@@H](CCO)Nc1nc(N)nc2ccn(Cc3c(OC)cccc3OC)c12 [Compound 99] | 0.1 | < 0.001 | <0.01
CCC[C@@H](CO)Nc1nc(N)nc2ccn(Cc3c(OC)cccc3OC)c12 [Compound 100] | 0.04 | < 0.001 | <0.01
CCCC[C@@H](CO)Nc1nc(N)nc2ccn(Cc3c(OC)cccc3OC)c12 [Compound 101] | 0.08 | < 0.001 | <0.01
CCC[C@@H](CCO)Nc1nc(N)nc2ccn(Cc3c(OC)cccc3OC)c12 [Compound 102] | 0.14 | < 0.001 | <0.01
COCCNc1nc(N)nc2ccn(Cc3ccccc3OC)c12 [Compound 103] | >25 | 0.018 | 0.032
CC(Nc1nc(N)nc2ccn(C)c12)c1ccccn1 (stereo not drawn) [Compound 104] | >25 | 1.98 | 11.960
COCCn1ccc2nc(N)nc(NC(C)c3ccccn3)c21 (stereo not drawn) [Compound 105] | >25 | 0.194 | 0.827
COCCNc1nc(N)nc2ccn(Cc3cccc(OC)c3)c12 [Compound 107] | >25 | 2.13 | 2.030
CC(C)c1cc(CNc2nc(N)nc3ccn(Cc4cscn4)c23)no1 [Compound 108] | >25 | 0.07 | 0.126
CCC[C@@H](CCO)Nc1nc(N)nc2ccn(Cc3cccc(OC)c3)c12 [Compound 109] | 7.17 | 0.003 | 0.005
COc1ccccc1Cn1ccc2nc(N)nc(NCc3cc(C)on3)c21 [Compound 110] | >25 | 0.001 | 0.002
